The source of these data is paper PMC9804470, “A Formylglycine‐Peptide for the Site‐Directed Identification of Phosphotyrosine‐Mimetic Fragments” (Chemistry (Weinheim an Der Bergstrasse, Germany), 2022).

*1 amine or outer side, *2 acyl side, *3 side chain or, on linkers, in order; H or OH if unused. [ ]: non-standard residue; d: D form. F2Pmp = N[C@@H](Cc1ccc(C(F)(F)P(=O)(O)O)cc1)C(=O)O; fGly = 2-formylglycine, O=C[C@H](N[*:1])C(=O)[*:2]; Dap = NC[C@H](N)C(=O)O

One data set can be described thus: Solubility of peptide 3. The data set is classed as physicochemical. Conditions: in water, buffer, and DMSO; qualitative.
For data set [1], the target named is T1, catalytic domain of human PTP1B (Homo sapiens, UniProt P18031).
T1 construct: catalytic domain of human PTP1B (amino acids 1–321); His7 (N, cleaved yes); made in house; host or cells: E. coli Rosetta (DE3)
T1 sequence (P18031 1-321): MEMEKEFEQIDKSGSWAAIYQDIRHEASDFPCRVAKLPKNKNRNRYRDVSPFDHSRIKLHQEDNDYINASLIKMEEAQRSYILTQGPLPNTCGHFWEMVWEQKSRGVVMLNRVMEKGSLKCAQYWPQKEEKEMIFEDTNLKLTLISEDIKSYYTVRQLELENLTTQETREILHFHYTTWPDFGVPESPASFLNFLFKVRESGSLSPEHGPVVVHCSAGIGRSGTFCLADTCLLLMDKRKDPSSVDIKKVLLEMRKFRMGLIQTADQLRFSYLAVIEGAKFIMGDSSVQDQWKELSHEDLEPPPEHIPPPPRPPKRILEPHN
The experiment in a line: Enzyme activity assay of PTP1B with fluorogenic substrate DiFMUP. The format is biochemical. Conditions: SD; read-out: KI PTP1B. As for the experimental part: Protein Expression and purification: DNA encoding the catalytic domain of human PTP1B (amino acids 1–321) was subcloned into the pQLinkH vector. The gene encoding the N‐terminal His7‐tagged protein was over‐expressed at 17 °C in E. coli Rosetta (DE3). […] The His7‐tag was cleaved with tobacco etch virus protease at 20 °C prior to the gel‐filtration step. The catalytic domain of human SHP2 (amino acids 225–541) was purified from E. coli B21 (DE3). The overexpressed protein was fused to an N‐terminal His10‐tag. Cells were harvested and resuspended in 25 mM Tris‐HCl (pH=7.5), 50 mM NaCl, 1 % (v/v) Triton X‐100, 10 % (v/v) glycerol, 1 mM DTT. After cell lysis, debris was removed by centrifugation at 12,000 rpm for 30 min. The supernatant was filtered prior to affinity purification with Ni‐NTA agarose (Qiagen). The slurry was washed with 50 mM Tris‐HCl (pH=8.0), 500 mM NaCl supplemented with 25 mM imidazole. Reasonably pure protein was eluted with 200–300 mM imidazole. The purification was completed by size‐exclusion chromatography with a Superdex 75 16/600 column (GE Healthcare) equilibrated with 20 mM HEPES‐NaOH (pH=7.5), 50 mM NaCl, 1 mM DTT.
Enzyme activity assays of SHP2 and PTP1B: The catalytic activity of SHP2 catalytic domain and PTP1B were monitored using the fluorogenic substrate DiFMUP (6,8‐difluoro‐4‐methylumbelliferyl phosphate). Phosphatase reactions were performed at room temperature in 384‐well black plate, clear flat bottom, low flange, non‐binding surface (Corning, Cat# 3766) using a final volume of 20 μL and the following assay buffer conditions: 50 mM MOPS, pH=6.5, 200 mM NaCl, 50 μM TCEP, 0.03 % Tween‐20 (freshly added prior to each measurement). Test compounds were dissolved in DMSO or buffer at stock concentrations of 50, 20 or 10 mM and serially diluted. Enzyme (5 nM PTP1B or 2.5 nM SHP2 catalytic domain) and different concentrations of the tested compounds were incubated in buffer for 30–60 min at room temperature. Measurements were performed with a final concentration of 2.5 % DMSO unless stated otherwise at 37 °C and were performed in triplicate. Enzymatic reactions were started by adding DiFMUP (Invitrogen, cat# D6567) concentrations matching the experimentally determined KM values of the enzymes of 67 μM (PTP1B) or 72 μM (SHP2). Samples were excited at a wavelength of 360 nm and emitted fluorescence was recorded at 460 for 10 min using a microplate reader (infinite M1000 Pro, Tecan). Initial slope of fluorescence was determined in triplicate and IC50 values were calculated with GraphPad Prism 5. Determined IC50 values were converted into the corresponding KI values applying the Cheng Prusoff equation KI =IC50 /(1+[S]/KM ).

Another data set concerns SHP2 signaling. Conditions: cited from earlier work. From the text:
(§1) Our next goal was to validate the three phosphotyrosine mimetics F1, F2, and F4 identified by fragment ligation screening as substructures of heterocyclic and cell‐penetrating SHP2‐inhibitors. The potent SHP2‐specific inhibitor GS‐493 was selected as a reference compound. […] In combination with a kinase inhibitor, GS‐493 ...

In a further data set the test system is pancreas cancer. Conditions: in combination with a kinase inhibitor; cited from earlier work.
Description: as §1

In another data set the test system is mammary gland tumors. Conditions: endogeneous cancer model; cited from earlier work.
Description: as §1

In data set [2] the test system is HGF‐induced tyrosine phosphorylation of ERK 1/2 in HeLa cells. The experiment in a line: Western blot of p-ERK in HGF-stimulated HeLa cells. The data set is classed as cell-based. Conditions: 1 h treatment, Western blot, DMSO control. As for the experimental part:
Cellular experiments: HeLa cells were cultivated in DMEM buffer with 10 % FCS in 75 cm^2 cell culture flasks at 37 °C, 5 % CO2. At confluency of about 75 %, cells were seeded in a density of 250,000 cells/mL in 6‐well plates and incubated for 24 h. Subsequently, medium was removed and replaced by DMEM buffer with 0.1 % BSA (1 mL per well) and incubated for another 16 h. Hepatocyte growth factor (HGF, 20 ng/well) and test compounds in different final concentrations (1 μL, in DMSO) were added. Control wells received the same amount of DMSO (final concentration 0.1 %) or no addition. Plates were incubated for 1 h, then washed with cold PBS and shaken with lysis buffer (mPer reagent ThermoScientific # 78501 with 1 mM NaF, 2 mM Na3VO4, 25× protease inhibitor) for 5 min. Cell lysates were transferred to Eppendorf cups and centrifuged at 4 °C with 10,000 g for 10 min. […] The blot was incubated with anti‐phospo‐ERK as primary antibody (Cell Signaling # 9106, dilution 1 : 2000 in TBS‐Tween/ 2 % BSA) overnight at 4 °C, washed 3×5 min with TBS‐Tween, and incubated with anti‐mouse IgG‐hrp as secondary antibody (Santa Cruz # sc2031, 1 : 6000 in TBS‐ Tween/ 2 % BSA, RT, 1.5 h). The blot was again washed 3×5 min with TBS‐Tween and imaged with the ECL system (ThermoScientific # 34080) at Syngene PXi Imager. From the same lysis sample, under the same conditions, ERK 1/2 and β‐tubulin were blotted. For β‐tubulin, the antibody incubation time was adjusted to 2 h at RT.
A general note: Immunoblotting shows a protein as a band on a membrane.

The target in the next data set is T2, peptide 15 (Homo sapiens, UniProt P00533, not fully specified (residue 5); also: formylglycine reductively aminated with 4-amino-phenyl-acetic acid F1, place not in chain).
T2 chain: Ac-DADEYL-NH2
The experiment in a line: DiFMUP enzyme inhibition assay.

The target of a further data set is T3, peptide 17 (Homo sapiens, UniProt P00533, not fully specified (residue 5); also: reduced Knoevenagel product of formylglycine with barbituric acid, place not in chain).
T3 chain: Ac-DADEYL-NH2
The experiment in a line: DiFMUP enzyme inhibition assay.

Data set [3] has as its target T4, peptide 2 Ac-DADE(PDFM-F)L-NH2 (Homo sapiens, UniProt P00533).
T4 chain: Ac-DADE[F2Pmp]L-NH2
The experiment in a line: DiFMUP enzyme inhibition assay.

The next data set has as its target T5, peptide 18 (Homo sapiens, UniProt P00533).
T5 chain: Ac-DADE[Dap](4‑trifluoromethylsulfonylamido‑phenyl)L-NH2
The experiment in a line: DiFMUP enzyme inhibition assay.

The target of the next data set is T6, peptide 16 (Homo sapiens, UniProt P00533, not fully specified (residue 5); also: formylglycine reductively aminated with aryl amine F4, place not in chain).
T6 chain: Ac-DADEYL-NH2
The experiment in a line: DiFMUP enzyme inhibition assay.

Another data set has as its target T7, formylglycine peptide 3 (Homo sapiens, UniProt P00533).
T7 chain: Ac-DADE[fGly]L-NH2
The experiment in a line: DiFMUP enzyme inhibition assay.

The term Ki denotes a measure of affinity in units of concentration, obtained from inhibition or displacement.

Turning to `CC(=O)N[C@@H](CC(=O)O)C(=O)N[C@@H](C)C(=O)N[C@@H](CC(=O)O)C(=O)N[C@@H](CCC(=O)O)C(=O)NC(C=O)C(=O)N[C@@H](CC(C)C)C(N)=O` (stereo partly drawn) [Compound 3, N‐Acetyl‐L‐aspartyl‐L‐alaninyl‐L‐aspartyl‐L‐glutamyl‐2‐formylglycyl‐L‐leucinyl‐amide], the Solubility result in “Solubility of peptide 3” is recorded as “highly soluble”. The inhibition constant (Ki) in data set [1] was found to be 484 ± 30 µM.

For the molecule `O=C1/C(=N\Nc2ccc(S(=O)(=O)O)cc2)C(c2ccc([N+](=O)[O-])cc2)=NN1c1ccc([N+](=O)[O-])cc1` [GS‐493], the “Block of SHP2 signaling in cancer cells and animal models” value with SHP2 signaling is on record as “able to block SHP2 signaling”. In addition, in the data set on pancreas cancer, the “Effect on pancreas cancer” value is recorded as “able to suppress pancreas cancer”. Besides, the “Effect on development of mammary gland tumors” value in the data set on mammary gland tumors was “able to block the development of mammary gland tumors”. In addition, the “Effect on HGF‐induced tyrosine phosphorylation of ERK 1/2” value in data set [2] is on record as “decreased”.

B1: PTP1B 1-321 (protein)
chain: MEMEKEFEQIDKSGSWAAIYQDIRHEASDFPCRVAKLPKNKNRNRYRDVSPFDHSRIKLHQEDNDYINASLIKMEEAQRSYILTQGPLPNTCGHFWEMVWEQKSRGVVMLNRVMEKGSLKCAQYWPQKEEKEMIFEDTNLKLTLISEDIKSYYTVRQLELENLTTQETREILHFHYTTWPDFGVPESPASFLNFLFKVRESGSLSPEHGPVVVHCSAGIGRSGTFCLADTCLLLMDKRKDPSSVDIKKVLLEMRKFRMGLIQTADQLRFSYLAVIEGAKFIMGDSSVQDQWKELSHEDLEPPPEHIPPPPRPPKRILEPHN
As for B1, the inhibitory constant (Ki) with peptide 15 amounted to 138 µM; with peptide 17 it was 123 µM; in data set [3], 1.4 µM; in the data set with peptide 18, 202 µM; in the data set with peptide 16, 213 µM; with formylglycine peptide 3, 484 µM.
